Calls of active or inactive are those of the source. The calls are words filed in the database; no cut-off is given here.
Assays:
Felis catus [1] = assay: Induction of ganglion stimulating activity in cat assessed as increase in blood pressure at 1 to 300 ug/kg, iv by […]; type: functional
Oryctolagus cuniculus [2] = species on record: Oryctolagus cuniculus; assay: Agonist activity at muscarinic receptor in rabbit ileum assessed as […]; type: tissue-based
Oryctolagus cuniculus [3] = species on record: Oryctolagus cuniculus; assay: Agonist activity at muscarinic receptor in rabbit ileum assessed as […] relative to acetylcholine; type: tissue-based
Felis catus [4] = assay: Induction of ganglion stimulating activity in iv dosed cat assessed as slight increase in blood pressure administered at 300 ug/kg, iv by […]; type: functional, organism-based

| Compound | Activity (Felis catus [1]) | Activity (Oryctolagus cuniculus [2]) | other results |
| --- | --- | --- | --- |
| C[N+](C)(C)CC#CCOC(=O)Nc1ccc(Cl)cc1 | Active |  |  |
| C[N+](C)(C)C[C@H]1O[C@H]1COC(=O)Nc1ccc(Cl)cc1 (relative stereo) | Active | inactive |  |
| C[N+](C)(C)C/C=C/COC(=O)Nc1ccc(Cl)cc1.[I-] |  |  | Activity (Oryctolagus cuniculus [3]): 1%; fold change (FC) (Felis catus [1]): 3 |
| C[N+](C)(C)C/C=C\COC(=O)Nc1ccc(Cl)cc1.[I-] |  | inactive | fold change (FC) (Felis catus [1]): 3; Activity (Felis catus [4]): Active |
| C[N+](C)(C)C[C@H]1O[C@@H]1COC(=O)Nc1ccc(Cl)cc1 (relative stereo) | Active | inactive |  |
| C[N+](C)(C)C[C@H]1C[C@H]1COC(=O)Nc1ccc(Cl)cc1 (relative stereo) | inactive |  |  |
| C[N+](C)(C)CC#CCOC(=O)Nc1cccc(Cl)c1 | Active |  |  |
| CN(C)C[C@H]1C[C@@H]1CO (relative stereo) |  | inactive |  |
| C[N+](C)(C)C/C=C/COC(=O)Nc1cccc(Cl)c1 |  |  | Activity (Felis catus [4]): Active |
| C[N+](C)(C)C[C@@H]1C[C@H]1COC(=O)Nc1ccc(Cl)cc1 | inactive |  |  |
| CN(C)C[C@@H]1C[C@@H]1CO (relative stereo) |  | inactive |  |

Reference: ChEMBL document CHEMBL3272329, “Stereochemical analogs of a muscarinic, ganglionic stimulant. 2. Cis and trans olefinic, epoxide, and cyclopropane analogs related to 4-[N-(3-chlorophenyl)carbamoyloxy]-2-butynyltrimethylammonium chloride (McN-A-343)” (1976)
